Literature values in PMC8869242 (Biomedicines, 2022).
Read-outs that look alike come from different tables or passages of the source.

Legend:
[1] = system: Ehrlich ascites carcinoma (EAC); settings: cited from earlier work; for mice died during treatment: two injections per week for 2 weeks
[2] = system: endothelial cells (HUVEC); set-up: method as in PMID 34339726; settings: cited from earlier work
CAM = system: CAM; set-up: method as in PMID 34339726; settings: concentration of 5 mg/mL; cited from earlier work

SMILES | tumor volume reduction ([1]; i.p. 2 mg/kg, two injections per week for 2 weeks (cumulative 8 mg/kg)) | mice died during treatment ([1]; i.p. 2 mg/kg) | tumor volume reduction ([1]; 3 mg/kg, two injections per week for 2 weeks (cumulative 12 mg/kg)) | mice died during treatment ([1]; 3 mg/kg) | concentration range showing inhibition of migration of endothelial cells (HUVEC) [2] | angiogenesis in CAM assay (CAM)
O.O.O.O.O=C1[N-]S(=O)(=O)c2ccccc21.O=C1c2ccccc2S(=O)(=O)[N]1[Pd+].c1ccc(-c2cccc(-c3ccccn3)n2)nc1 [[Pd(sac)(terpy)](sac)·4H2O] | 67.5% | 1 of 10 |  |  |  | 
O.O.O=C1[N-]S(=O)(=O)c2ccccc21.[Cl][Pd+].c1ccc(-c2cccc(-c3ccccn3)n2)nc1 [[PdCl(terpy)](sac)·2H2O] |  |  | 69.8% | 1 of 9 | 12.5 to 50 µM | inhibition of angiogenesis
